Measured values from patent US7947688B2, “N-[3-(3-substituted-pyrazolo[1,5-a]pyrimidin-7-yl)phenyl]-sulfonamides, and compositions, and methods related thereto” (Ferrer Internacional, S.A., priority 2003, dated 2011).

What was measured:
[1] = tested on: male CD1 mice; assay: Predictive sedation-hypnosis test in mice (motor activity, crossings); format: in vivo; conditions: single equimolecular intraperitoneal dose, crossings over 30 min after dosing (first 5 min discarded) versus control
Experimental: • In vivo determination of predictive sedative-hypnotic action.
The in vivo effects of these compounds were assessed by a predictive sedation-hypnosis test in mice (D. J. Sanger et al., Eur. J. Pharmacol., 313, 35-42, 1996; and G. Griebel et al., Psychopharmacology, 146, 205-213, 1999). Groups of 5-8 male CD1 mice, weighing 22-26 g at the time of test, were used. The test compounds were administered in single equimolecular intraperitoneal doses, suspended in 0.25% agar with one drop of Tween in a volume of 10 ml/kg. Control animals received the vehicle alone. Using an Actisystem DAS16 (Panlab, S. L., Spain) the crossings (number of counts) were recorded for each mouse at 5-min intervals during a period of 30 minutes after dosing. The inhibition percentage of crossings of treated animals versus control animals (the first 5 min were discarded) was calculated.

[2] = biological target: α2-GABAA receptor (Rattus norvegicus, UniProt P18508+P23576); assay: Ligand-binding assay, radiolabeled flumazenil competition, rat spinal cord membranes; conditions: for inhibition at 10 µM: read-out: % Inhibition (10^−5 M), affinity for α2-GABAA receptor; for inhibition at 0.1 µM: read-out: % Inhibition (10^−7 M), affinity for α2-GABAA receptor
Experimental: Determination of the affinity of test compounds for α1- and α2-GABAA receptor.
Male Sprague-Dawley rats weighing 200-250 g at the time of experiment were used. After decapitation of the animal, the cerebellum (tissue that mostly contains α1-GABAA receptor) and spinal cord (tissue that mostly contains α2-GABAA receptor) were removed. The membranes were prepared according to the method by J. Lameh et al. (Prog. Neuro-Psychopharmacol. Biol. Psychiatry, 24, 979-991, 2000). Once the tissues weighed, they were suspended in 50 mM Tris.HCl (pH 7.7), 1:40 (v/v), homogenized and then centrifuged at 20000 g for 10 min at 7° C. The resulting pellet was resuspended under the same conditions and centrifuged again. The pellet was finally resuspended on a minimum volume and kept at −80° C. overnight. On the next day, the process was repeated until the final pellet was resuspended at a ratio of 1:10 (v/v).
Affinity was determined by competitive tests using radiolabeled flumazenil as ligand. The tests were performed according to the methods described by S. Arbilla et al. (Eur. J. Pharmacol., 130, 257-263, 1986); and Y. Wu et al. (Eur. J. Pharmacol., 278, 125-132, 1995). The membranes containing the study receptors, flumazenil (radiolabeling at a final concentration of 1 nM) and ascending concentrations of test compounds (in a total volume of 500 μl in […] [ph 7.4] Tris.HCl buffer) were incubated. Simultaneously, the membranes were only incubated with the radiolabeled flumazenil (total binding, 100%) and in the presence of an elevated concentration of unradiolabeled flumazenil (non-specific binding, % estimation of radiolabeled ligand). The reactions started on adding the radiolabeled ligand followed by incubation for 60 minutes at 0° C. At the end of the incubation period, the tubes were filtered using a Brandel Mod. M-48R harvester and then washed three times with cold test buffer. The harvester was fitted with a GF/B filter that retained the membranes containing the receptors and the radiolabeled ligand which had been bound to the receptors. Then the filters were removed and left till dry. Once dried, the filters were cut, placed in vials with scintillation liquid and left under stirring overnight. The next day the filters were counted using a Packard Mod. Tricarb scintillation counter.
X: amount of bound ligand for every concentration of compound.
T: total binding, maximum amount bound to the radiolabeled ligand.
N: non-specific binding, amount of radiolabeled ligand bound in a non-specific way irrespective of the receptor used.
Every concentrations of compound were tested in duplicate and their mean values were used to determine the experimental values of % specific binding versus the concentration of compound. […] Inhibition constants (Ki) were calculated from the IC50 values according to Cheng-Prusoff's formula (Y. Cheng y W. H. Prusoff, Biochem. Pharmacol., 22(23), 3099-3108, 1973).

Compound | % Motor Activity Inhibition [1] | inhibition at 10 µM [2] | inhibition at 0.1 µM [2]
CCN(c1cccc(-c2ccnc3c(C#N)cnn23)c1)S(C)(=O)=O [Example 5, N-[3-(3-cyano-pyrazolo[1,5-a]pyrimidin-7-yl)-phenyl]-N-ethyl-methanesulfonamide] | 80.91% | – | –
CCN(c1cccc(-c2ccnc3c(C(=O)c4cccs4)cnn23)c1)S(C)(=O)=O [Example 6, N-ethyl-N-{3-[3-(thiophene-2-carbonyl)-pyrazolo[1,5-a]pyrimidin-7-yl]-phenyl}-methanesulfonamide] | 66.55% | – | –
C#CCN(c1cccc(-c2ccnc3c(C(=O)c4cccs4)cnn23)c1)S(C)(=O)=O [Example 16, N-2-propynyl-N-{3-[3-(thiophene-2-carbonyl)-pyrazolo[1,5-a]pyrimidin-7-yl]-phenyl}-methanesulfonamide] | 95.36% | – | –
CCCN(c1cccc(-c2ccnc3c(C(=O)c4cccs4)cnn23)c1)S(=O)(=O)CC [Example 17, N-propyl-N-{3-[3-(thiophene-2-carbonyl)-pyrazolo[1,5-a]pyrimidin-7-yl]-phenyl}-ethanesulfonamide] | 94.21% | 74.5% | 0%
CCN(c1cccc(-c2ccnc3c(C(=O)c4cccs4)cnn23)c1)S(=O)(=O)CC [Example 18, N-ethyl-N-{3-[3-(thiophene-2-carbonyl)-pyrazolo[1,5-a]pyrimidin-7-yl]-phenyl}-ethanesulfonamide] | 93.39% | 93.7% | 20.7%
C#CCN(c1cccc(-c2ccnc3c(C(=O)c4cccs4)cnn23)c1)S(=O)(=O)C(C)C [Example 19, N-2-propynyl-N-{3-[3-(thiophene-2-carbonyl)-pyrazolo[1,5-a]pyrimidin-7-yl]-phenyl}-2-propanesulfonamide] | 89.88% | 94.4% | 45.2%
CCS(=O)(=O)N(C)c1cccc(-c2ccnc3c(C(=O)c4cccs4)cnn23)c1 [Example 20, N-methyl-N-{3-[3-(thiophene-2-carbonyl)-pyrazolo[1,5-a]pyrimidin-7-yl]-phenyl}-ethanesulfonamide] | 95.23% | 97.7% | 40.3%
O=C(c1cccs1)c1cnn2c(-c3cccc(N4CCCS4(=O)=O)c3)ccnc12 [Example 22, 7-(3-(2-isothiazolidinyl-1,1-dioxide)-phenyl)-3-(thiophene-2-carbonyl)-pyrazolo[1,5-a]pyrimidine] | 91.39% | 98.2% | 24.2%
CC(C)S(=O)(=O)N(C)c1cccc(-c2ccnc3c(C(=O)c4cccs4)cnn23)c1 [Example 23, N-methyl-N-{3-[3-(thiophene-2-carbonyl)-pyrazolo[1,5-a]pyrimidin-7-yl]-phenyl}-2-propane-sulfonamide] | 94.57% | 93.8% | 45.5%
CCN(c1cccc(-c2ccnc3c(C(=O)c4cccs4)cnn23)c1)S(=O)(=O)C(C)C [Example 24, N-ethyl-N-{3-[3-(thiophene-2-carbonyl)-pyrazolo[1,5-a]pyrimidin-7-yl]-phenyl}-2-propane-sulfonamide] | 94.01% | 83% | 10.4%
CCCN(c1cccc(-c2ccnc3c(C(=O)c4cccs4)cnn23)c1)S(=O)(=O)C(C)C [Example 25, N-propyl-N-{3-[3-(thiophene-2-carbonyl)-pyrazolo[1,5-a]pyrimidin-7-yl]-phenyl}-2-propane-sulfonamide] | 92.79% | 78.9% | 9.1%
C#CCN(c1cccc(-c2ccnc3c(C#N)cnn23)c1)S(C)(=O)=O [Example 27, N-[3-(3-cyano-pyrazolo[1,5-a]pyrimidin-7-yl)-phenyl]-N-2-propynyl-methanesulfonamide] | 93.12% | 85.2% | 2.9%
CCN(c1cccc(-c2ccnc3c(C#N)cnn23)c1)S(=O)(=O)CC [Example 29, N-[3-(3-cyano-pyrazolo[1,5-a]pyrimidin-7-yl)-phenyl]-N-ethyl-ethanesulfonamide] | 93.73% | 92.7% | 13.4%
C#CCN(c1cccc(-c2ccnc3c(C#N)cnn23)c1)S(=O)(=O)C(C)C [Example 30, N-[3-(3-cyano-pyrazolo[1,5-a]pyrimidin-7-yl)-phenyl]-N-2-propynyl-propane-2-sulfonamide] | 94.86% | 73.3% | 0%
N#Cc1cnn2c(-c3cccc(N4CCCS4(=O)=O)c3)ccnc12 [Example 33, 7-(3-(2-isothiazolidinyl-1,1-dioxide)-phenyl)-3-cyano-pyrazolo[1,5-a]pyrimidine] | 77.58% | 45.2% | 0%
CC(C)S(=O)(=O)N(C)c1cccc(-c2ccnc3c(C#N)cnn23)c1 [Example 34, N-[3-(3-cyano-pyrazolo[1,5-a]pyrimidin-7-yl)-phenyl]-N-methyl-2-propanesulfonamide] | 92.58% | 87.6% | 6.9%
CCN(c1cccc(-c2ccnc3c(C#N)cnn23)c1)S(=O)(=O)C(C)C [Example 35, N-[3-(3-cyano-pyrazolo[1,5-a]pyrimidin-7-yl)-phenyl]-N-ethyl-2-propanesulfonamide] | 92.55% | 86.5% | 24.5%
CCCN(c1cccc(-c2ccnc3c(C#N)cnn23)c1)S(=O)(=O)C(C)C [Example 37, N-[3-(3-cyano-pyrazolo[1,5-a]pyrimidin-7-yl)-phenyl]-N-propyl-2-propanesulfonamide] | 92.13% | 40.2% | 0%
C#CCN(c1cccc(-c2ccnc3c(C#N)cnn23)c1)S(=O)(=O)CC [Example 38, N-[3-(3-cyano-pyrazolo[1,5-a]pyrimidin-7-yl)-phenyl]-N-2-propynyl-ethanesulfonamide] | 94.85% | 77.6% | 17.4%
CN(c1cccc(-c2ccnc3c(C(=O)c4ccccn4)cnn23)c1)S(C)(=O)=O [Example 39, N-methyl-N-{3-[3-(pyridin-2-carbonyl)-pyrazolo[1,5-a]pyrimidin-7-yl]-phenyl}-methanesulfonamide] | 95.28% | 96.6% | 23.3%
CCN(c1cccc(-c2ccnc3c(C(=O)c4ccccn4)cnn23)c1)S(C)(=O)=O [Example 40, N-ethyl-N-{3-[3-(pyridin-2-carbonyl)-pyrazolo[1,5-a]pyrimidin-7-yl]-phenyl}-methanesulfonamide] | 94.32% | 99.5% | 47.3%
CCN(c1cccc(-c2ccnc3c(C(=O)c4ccncc4)cnn23)c1)S(C)(=O)=O [Example 46, N-ethyl-N-{3-[3-(pyridin-4-carbonyl)-pyrazolo[1,5-a]pyrimidin-7-yl]-phenyl}-methanesulfonamide] | 93.98% | 97.6% | 11.9%
CCN(C(C)=O)c1cccc(-c2ccnc3c(C#N)cnn23)c1 [Zaleplon, reference compound] | 47.17% | – | –
